Laboratory results reported in paper PMC7719179, “Small molecule inhibition of Dynamin-dependent endocytosis targets multiple niche signals and impairs leukemia stem cells” (Nature Communications, 2020).
Where “and” joins values, the source holds several entries; their conditions need not be identical. Equal entries are not always repeated.

What was measured:
DN3a thymocytes = assay: Relative viability and LC50 on DN3a thymocytes of WT, Lmo2^Tg, Lmo2^Tg;STAT5-CA^Tg and Lmo2^Tg;N1-ICD^Tg mice, 48 h
Procedure: Pre-leukemic and leukemic thymocytes were purified by flow cytometry and co-cultured on GFP-positive OP9 and OP9-DL1 stromal cell lines, as described previously. Thymocytes were co-cultured in reconstituted alpha-MEM medium (#12318, Gibco, Grand Island NY, USA) supplemented with 20% FCS (#12318), HEPES 10 mM (#15630-080), sodium pyruvate 1 mM (#11360-070), β-mercaptoethanol 55 μM (#21985-023), Glutamax 2 mM (#15750-060), 1% Penicillin/Streptomycin (#15140-122), 5 ng/mL rmFLT-3 ligand (#250-31 L, Pepro Tech), 5 ng/mL rmIL-7 (#217-17, Pepro Tech) and 25 ng/mL rmSCF (#250-03, Pepro Tech). After 48 h of co-culture, thymocytes were counted and analysed by FACS. […]
viability of wild-type (WT), Lmo2 Tg, Lmo2Tg;STAT5-CA Tg and Lmo2Tg;N1-ICD Tg DN3a thymocytes […]
normalized to cells treated with vehicle (%DMSO). Mean ± SEM of n=4 biological replicates. b, […]
thymocytes from 6-week old wild-type (WT), Lmo2 Tg, Lmo2Tg;STAT5-CATg and Lmo2Tg ;N1-ICD Tg mice. Mean ± SD of n=4 biological replicates are shown. 2-way ANOVA with Tukey’s correction test; […]
(1 picture or pasted object on this page, not shown here)
*P<0.05, *** P<0.001 compared to WT; #P<0.05, ##P<0.01, ###P<0.001 compared to L mo2Tg. c, Levels of pStat5 (left) after stimulation with IL-7 , as well as Hes1 expression (right) after co-culture on OP9- […]
(0.2 µM), Ruxolitinib (0.2 µM) and DAPT (0.1 µM). Unstimulated cells were used as negative controls (dashed line). Student’s t -test, ** P<0.01, *** P<0.001 compared to unstimulated cells. MFI ± SEM, 1-way ANOVA with Tukey’s correction test; **P<0.01, *** P<0.001 compared to vehicle. d, Clonogenic assay of normal murine hematopoietic stem and progenitor cells (HSPCs) cultured in the presence […]
± SD, Student’s t -test ( n=4) **P<0.01 compared to vehicle. e, Relative viability of wild-type (WT), […]
2 (0.2 µM), Ruxolitinib (0.2 µM) and DAPT (0.1 µM) for 48 hours. Viability was normalized to cells treated with vehicle (%DMSO, which was reported as 100). Mean ± SEM, 2-way ANOVA with Tukey’s correction test, **P<0.01, *** P<0.001 compared to vehicle.

[1] = tested on: Ba/F3-IL7R^Stat5-CA cells; assay: Cytotoxic activity in IL-7-dependent and IL-7-independent Ba/F3-IL7R^Stat5-CA cells; format: cell-based, murine; conditions: for Survival (%) over survival at day 0, reported as 100%: Ba/F3-IL7R^Stat5-CA cells, dose = IC50 or LC50 of each drug
Text: The doxycycline-inducible dual-colour TRMPVIR (TRE-dsRed-miR30/shRNA-PGK-Venus-IRES-rtTA3) retroviral vector[84] was kindly given by R. A. Dickins and was modified by replacing the dsRed-miR30/shRNA sequence by a T2A self-cleaving peptide[85] fusioned with the mCherry fluorescent protein (from TRIPZ, Addgene) inserted into the BamHI and EcoRI sites of the plasmid downstream of the TRE promoter to generate the TxTCPVIR (TRE-gene-T2A-mCherry-PGK-Venus-IRES-rtTA3) retroviral vector. Using standard cloning techniques, we inserted the full-length sequence of Stat5-CA from the pMig-R1 construct into the TxTCPVIR vector to generate the TxTCPVIR-Stat5-CA construct. All subcloned constructs were verified by DNA sequencing (Micromon, Monash University, Australia). Detailed cloning strategies, primers sequences and vectors are available on request.
Ba/F3 cells (kindly provided by a person from The Walter and Eliza Hall Institute of Medical Research) were infected with pMIG-R1/Il7r retroviral supernatants produced in 293T cells, and transduced cells were sorted with a BD Influx (BD Australia) and selected by culture in medium supplemented with 5 ng/mL rmIL-7 (#217-17, Pepro Tech, Rocky Hill NJ, USA) for 7 days. Ba/F3 cells stably expressing Il7r (Ba/F3-IL7R) were infected with TxTCPVIR-Stat5-CA retroviral supernatants produced in 293T. Cell sorting was performed with a BD Influx and transduced cells were treated with doxycycline for 48 h to induce the expression of the Stat5-CA-T2A-mCherry fusion protein.
Flow cytometry analyses were performed as previously described[10],[86] on single-cell suspensions stained using BD Pharmingen antibodies (BD Australia, North Ryde NSW, Australia) against mouse CD4 (RM4-5), CD8 (53-6.7), CD25 (PC61.5), CD44 (IM7), CD45.1 (A20), CD45.2 (104), Thy1.2 (53-2.1; #561616), TCRβ (H57-597), CD117 (ACK45), CD135 (A2F10.1), CD150 (TC15-12F12.2; #562373), B220 (RA3-6B2; #563708), CD3 (145-2C11; #563004), CD19 (ID3; #557655), Gr-1 (RB6-8C5; #563299 and #565033), CD11b (M1/70; #563015 and #560455), Ter119 (Ter119; #565523 and #557909), Sca-1 (D7; #558160) and an eBioscience antibody (eBioscience, Invitrogen) against mouse NOTCH1 (22E5). DN3 populations and IL-7R were stained using BioLegend antibodies (Australian Biosearch, Balcatta WA, Australia) against mouse CD28 (E18) and CD127 (A7R34), respectively. Apoptosis was measured using an antibody against AnnexinV (#556420, BD Australia) and the […] Sytox Blue (BD Australia) following the manufacturer’s protocol.

CCCCCCCCNC(=O)C(C#N)=Cc1cn(CCCN(C)C)c2ccccc12 [Dynole 34-2, 2-Cyano-N-octyl-3-(1-(3-dimethylaminopropyl)-1H-indol-3-yl)-acrylamide]
relative resistance conferred by mutations downstream of DDE (STAT5-CA^Tg, N1-ICD^Tg) vs Lmo2^Tg DN3a (DN3a thymocytes; LC50 comparison, 48 h): 3.4 fold | Relative % viable cells (DN3a thymocytes; Lmo2Tg DN3a thymocytes, dose 0.04 mM (so in the source)): 53.38% and 35.26% and 57.31% and 29.03% | Relative % viable cells (DN3a thymocytes; Lmo2Tg DN3a thymocytes, dose 25 mM (so in the source)): 0% | Relative % viable cells (DN3a thymocytes; Lmo2Tg;Notch1Tg DN3a thymocytes, dose 1 mM (so in the source)): 27.05% and 30.53% and 26.36% | Relative % viable cells (DN3a thymocytes; Lmo2Tg;STAT5-CATg DN3a thymocytes, dose 0.04 mM (so in the source)): 60% and 110.87% and 62.94% and 65.19% | Relative % viable cells (DN3a thymocytes; Lmo2Tg;STAT5-CATg DN3a thymocytes, dose 0.2 mM (so in the source)): 40.03% and 50.05% and 55.36% | Relative % viable cells (DN3a thymocytes; Lmo2Tg;STAT5-CATg DN3a thymocytes, dose 25 mM (so in the source)): 0% and 5.23% and 8.65% | viability at 200 µM (DN3a thymocytes; Mus musculus, Thymocyte, read-out: Relative % viable cells, Lmo2Tg;STAT5-CATg DN3a thymocytes, dose 0.2 mM (so in the source)): 37.5% | Relative % viable cells (DN3a thymocytes; WT DN3a thymocytes, dose 0.04 mM (so in the source)): 81.18% and 50% and 68.95% and 71.06% and 67.17% | Relative % viable cells (DN3a thymocytes; WT DN3a thymocytes, dose 5 mM (so in the source)): 5.59% and 1.77% and 8.44% and 6.33% and 6.38% | Relative % viable cells (DN3a thymocytes; WT DN3a thymocytes, dose 25 mM (so in the source)): 0% and 8.83% | sensitivity of wild-type (WT) DN3a thymocytes relative to pre-LSCs (DN3a thymocytes; WT vs Lmo2^Tg DN3a, result in words): fivefold less sensitive | Survival (%) over survival at day 0, reported as 100% ([1]; +IL-7 -DOX, 0 h): 100.02% and 100.26% and 101.92% and 100.41% and 100.83% | Survival (%) over survival at day 0, reported as 100% ([1]; +IL-7 -DOX, 24 h): 43.12% and 51.68% and 50.50% and 59.30% and 47.40% and 40.60% | Survival (%) over survival at day 0, reported as 100% ([1]; +IL-7 -DOX, 72 h): 14.22% and 14.73% and 23.20% and 19.38% and 17.76% and 14.96% | Survival (%) over survival at day 0, reported as 100% ([1]; +IL-7 -DOX, 96 h): 9.23% and 10.77% and 10.13% and 6.51% and 4.52% and 2.59% | Survival (%) over survival at day 0, reported as 100% ([1]; -IL-7 +DOX, 0 h): 100.62% and 100.47% and 99.53% and 102.59% and 101.73% and 102.89% | Survival (%) over survival at day 0, reported as 100% ([1]; -IL-7 +DOX, 24 h): 90.53% and 91.07% and 101.15% and 104.21% and 101.37% and 100.26% | Survival (%) over survival at day 0, reported as 100% ([1]; -IL-7 +DOX, 48 h): 94.10% and 95.40% and 97.40% and 99.30% and 95.90% | Survival (%) over survival at day 0, reported as 100% ([1]; -IL-7 +DOX, 72 h): 93.90% and 97.20% and 90.70% and 94.80% and 93.20% and 97.10% | Survival (%) over survival at day 0, reported as 100% ([1]; -IL-7 +DOX, 96 h): 93.40% and 86.60% and 95.50% and 96.20% and 87.10% and 90.40% | Survival (%) over survival at day 0, reported as 100% ([1]; -IL-7 +DOX, 120 h): 91.10% and 96.40% and 90.00% and 90.90% and 93.10% and 83.00% | sensitivity of Ba/F3-IL7R^Stat5-CA cells with constitutive pStat5 (doxycycline) ([1]; result in words): resistant
